Values after ≈ are worked out from the molar mass of the structure shown. “Also recorded” adds a separate entry of the source. Read-outs that look alike come from different tables or passages of the source.
Legend:
[1] = Repeated oral toxicity testing in monkeys; format: in vivo; details: for safe dosage: under these test conditions
Method: Compound A was given orally to monkeys every day for 28 days at dosages of 1, 3, 10 and 30 mg/kg/day, and its toxicity was studied.
As a result, at dosages of 3 mg/kg/day or more, a decrease in serum cortisol, hyperplasia and increase in lipid droplets in the zona fasciculata in the adrenal cortex, and atrophy of the seminiferous tubules of the testes were observed; at the dosage of 30 mg/kg/day, prolongation of the QTc interval in the electrocardiogram (QT period corrected for heart rate) was also observed. Under these test conditions, it was considered that 1 mg/kg/day was a safe dosage.
Compound (+)-I was given orally to monkeys every day for 28 days at dosages of 1, 3, 10 and 30 mg/kg/day, and its toxicity studied.
Under these test conditions, it was considered that 30 mg/kg/day was safe dosage.

[2] = test system: Cryptococcus neoformans TIMM 0362; test: Effectiveness in treatment of in vivo infections (survival of infected mice); details: TIMM0362; Cryptococcus neoformans TIMM 0362 i.v. infection, male ICR mice; dosed orally 1x (1 hour after infection); survival after 2 weeks
Method: (§1) Measurement of Effectiveness in Treatment of In vivo Infections Using 10 animals per group, male ICR mice (body weight 18 to 20 g) were infected by intravenous injection of the test fungi as an aqueous suspension. The test compounds were given orally once 1 hour after infection, or once daily for 5 days starting from 1 hour after infection. After 2 weeks, the number of animals surviving was counted, and the dosage at which 50% of the animals survive (ED₅₀: mg/kg) was calculated using the Litchfield-Wilcoxon method.

[3] = test system: Candida albicans IFM 40009; test: as above; details: IFM40009, Candida albicans IFM 40009 i.v. infection, male ICR mice, survival after 2 weeks
Method: as §1

[4] = test system: Aspergillus fumigatus IFM 4942; test: as above; details: IFM4942; Aspergillus fumigatus IFM 4942 i.v. infection, male ICR mice; dosed orally 5x (once daily for 5 days); survival after 2 weeks
Method: as §1

[5] = Variation in the plasma concentrations in monkeys of the toxicity study; format: in vivo; details: repeated daily oral dosing for 28 days
[6] = test system: Cryptococcus neoformans TIMM 0362; test: Measurement of Minimum Inhibitory Concentration (MIC), agar dilution; format: cell-based; details: SDA agar plates, 30°C
Method: (§2) Measurement of Minimum Inhibitory Concentration (MIC)
(§3) Yeast-type fungi were cultured in Sabouraud dextrose broth (SDB, Difco) at 30°C for 24 hours, and 10⁵ cell/ml suspension for inoculation were prepared by diluting this with sterile physiological saline. In the case of filamentous fungi, 3 to 5 ml sterile physiological saline containing 0.05% (w/v) Tween 80 were added to mature Sabouraud dextrose agar culture medium (SDA, Difco) slant cultures (cultured for 2 to 3 weeks) in which conidia had formed abundantly, and the conidia were separated using an inoculating loop (Nunc Inc.). The conidial suspensions obtained were collected using a sterile pipette, and, after filtration through a double layer of sterile gauze to remove mycelial aggregates and agar fragments, were made into suspensions for inoculation by dilution of 10⁵ conidia/ml with sterile physiological saline. Meanwhile, as regards the drug-containing agar plates, a drug concentration of 0.005 to 10 mg/ml was prepared using dimethyl sulfoxide (DMSO, Wako Junyaku), and, by adding 99 parts of SDA to 1 part of this drug solution, two-fold serial dilution agar media of final dilutions 0.05 to 100 µg/ml were prepared. The fungal suspensions for inoculation prepared by the above method were inoculated onto these agar plates using a MIT-P microplanter (Sakuma Seisakusho).

[7] = test system: Trichophyton mentagrophytes TIMM 1188; test: as above; format: cell-based; details: SDA agar plates, 30°C
Method: as §2, §3

[8] = test system: Candida albicans IFM 40009; test: as above; format: cell-based; details: 30°C, 48 hours
Method: as §2, §3

[9] = test system: Aspergillus fumigatus IFM 4942; test: as above; format: cell-based; details: SDA agar plates, 30°C
Method: as §2, §3

[10] = test system: Candida tropicalis TIMM 0313; test: as above; format: cell-based; details: SDA agar plates, 30°C
Method: as §2, §3

[11] = test system: Candida glabrata TIMM 1064; test: as above; format: cell-based; details: SDA agar plates, 30°C
Method: as §2, §3

[12] = every day for 28 days, 1, 3, 10 and 30 mg/kg/day
[13] = dosed orally 5x (once daily for 5 days)
[14] = Cryptococcus neoformans, TIMM0362, 48 h, read-out: MIC
[15] = Trichophyton mentagrophytes, TIMM1188, 48 h, read-out: MIC
[16] = IFM40009, SDA agar plates, read-out: MIC
[17] = Aspergillus fumigatus, IFM4942, 48 h, read-out: MIC
[18] = Candida tropicalis, TIMM0313, 48 h, read-out: MIC
[19] = Nakaseomyces glabratus, TIMM1064, 48 h, read-out: MIC
[20] = every day for 28 days, up to 30 mg/kg/day
[21] = dosed orally 1x (1 hour after infection)

Compound	safe dosage ([1]; every day for 28 days)	ED50 [2]	ED50 [3, 13]	ED50 [4]	variation in the plasma concentrations with time (accumulation) [5]	MIC [6, 14]	MIC [7, 15]	MIC [8, 16]	MIC [9, 17]	MIC [10, 18]	MIC [11, 19]	ED50 [3, 21]	also measured
OC(Cn1cncn1)(Cn1cnc(/C=C/c2ccc(OCC(F)(F)C(F)F)cc2)n1)c1ccc(F)cc1F (racemic) [compound A, (±)-2-(2,4-difluorophenyl)-1-[3-[(E)-4-(2,2,3,3-tetrafluoropropoxy)styryl]-1H-1,2,4-triazol-1-yl]-3-(1H-1,2,4-triazol-1-yl)propan-2-ol]	1 mg/kg/day	43.5 mg/kg	1.7 mg/kg	53.6 mg/kg	accumulates; also recorded: increased day-by day	0.78 µg/mL (≈ 1.45 µM)	0.39 µg/mL (≈ 0.724 µM)	12.5 µg/mL (≈ 23.2 µM)	12.5 µg/mL (≈ 23.2 µM)	12.5 µg/mL (≈ 23.2 µM)	1.56 µg/mL (≈ 2.9 µM)	–	dosage at which a decrease in serum cortisol was observed [1, 12]: ≥ 3 mg/kg/day; dosage at which atrophy of the seminiferous tubules of the testes was observed [1, 12]: ≥ 3 mg/kg/day; dosage at which hyperplasia and increase in lipid droplets in the zona fasciculata in the adrenal cortex was observed ([1]; every day for 28 days, 1, 3, 10 and 30 mg/kg/day, only slight for compound (+)-I): ≥ 3 mg/kg/day
OC(Cn1cncn1)(Cn1cnc(/C=C/c2ccc(OCC(F)(F)C(F)F)cc2)n1)c1ccc(F)cc1F (single isomer, unassigned; (+)) [Compound (+)-I, (+)-2-(2,4-difluorophenyl)-1-[3-[(E)-4-(2,2,3,3-tetrafluoropropoxy)styryl]-1H-1,2,4-triazol-1-yl]-3-(1H-1,2,4-triazol-1-yl)propan-2-ol]	30 mg/kg/day	19.7 mg/kg	1 mg/kg	39.8 mg/kg	no day-by day increase in the plasma concentrations; also recorded: does not display accumulation	–	–	12.5 µg/mL (≈ 23.2 µM)	–	–	–	2.6 mg/kg	testicular toxicity (atrophy of the seminiferous tubules), finding in words ([1]; even at a dosage of 30 mg/kg/day): did not display; electrocardiogram / cardiotoxicity (prolongation of the QTc interval), finding in words [1, 20]: no abnormalities in the electrocardiogram were seen; also recorded: did not display cardiotoxicity (prolongation of the QTc interval); serum cortisol level (finding in words) [1, 20]: no decrease in the serum cortisol level; also recorded: did not display; MIC ([6]; 48 hours, listed as COMP. (+)I): 0.39 µg/mL (≈ 0.724 µM); MIC ([7]; 48 hours, listed as COMP. (+)I): 0.10 µg/mL (≈ 0.186 µM); MIC ([9]; 48 hours, listed as COMP. (+)I): 6.25 µg/mL (≈ 11.6 µM); MIC ([10]; 48 hours, listed as COMP. (+)I): 12.5 µg/mL (≈ 23.2 µM); MIC ([11]; 48 hours, listed as COMP. (+)I): 0.78 µg/mL (≈ 1.45 µM)
OC(Cn1cncn1)(Cn1cnc(/C=C/c2ccc(OCC(F)(F)C(F)F)cc2)n1)c1ccc(F)cc1F (single isomer, unassigned; (-)) [Compound (-)-I, (-)-2-(2,4-difluorophenyl)-1-[3-[(E)-4-(2,2,3,3-tetrafluoropropoxy)styryl]-1H-1,2,4-triazol-1-yl]-3-(1H-1,2,4-triazol-1-yl)propan-2-ol]	–	–	–	–	–	–	–	–	–	–	–	–	MIC ([6]; 48 hours, listed as COMP. (-)I): >100 µg/mL; MIC ([7]; 48 hours, listed as COMP. (-)I): 50 µg/mL (≈ 92.9 µM); MIC ([8]; SDA agar plates): 12.5 µg/mL (≈ 23.2 µM); MIC ([9]; 48 hours, listed as COMP. (-)I): >100 µg/mL; MIC ([10]; 48 hours, listed as COMP. (-)I): >100 µg/mL; MIC ([11]; 48 hours, listed as COMP. (-)I): >100 µg/mL
OC(Cn1cncn1)(Cn1cncn1)c1ccc(F)cc1F [FLUCONAZOLE, 2-(2,4-difluorophenyl)-1,3-bis(1H-1,2,4-triazol-1-yl)-propan-2-ol]	–	> 100 mg/kg	3.6 mg/kg	57.9 mg/kg	–	50 µg/mL (≈ 163 µM)	25 µg/mL (≈ 81.6 µM)	> 100 µg/mL	> 100 µg/mL	> 100 µg/mL	100 µg/mL (≈ 327 µM)	> 30 mg/kg	–
